Source: PMC7822819, “Discovery of a new class of integrin antibodies for fibrosis” (Scientific Reports, 2021)
Like-named read-outs stand apart in the source and are kept apart here.

Key:
human αvβ8 = human αvβ8 (Homo sapiens, UniProt P06756+P26012); assay: AlphaLISA integrin-ligand binding assay; type: biochemical; parameters: hαV 1 992; hβ8 1 684; made in house; host or cells: Expi293
Procedure: (§1) In the AlphaLISA integrin assays, we used a HEPES based buffer (25 mM HEPES pH 7.4, 137 mM NaCl, 1 mM MgCl2, 1 mM MnCl2, 2 mM CaCl2, 2.7 mM KCl, and 0.05% Tween-20). Optimal assay conditions were determined with a titration of the reagents for signal noise ratio (S/N), linear range, etc. For the respective integrins, we used the final concentrations described in Supplemental Table S3. Briefly, the testing antibody (8 μL) was added as a 4x (of Final testing concentration) solution in the HEPES buffer described previously into a 384w AlphaPlate (Perkin Elmer #6005350). Then the integrin and ligand were added sequentially as 8x (4 μL each). Plates were sealed and incubated at room temperature for 2 h. Then 4 × acceptor bead solution (8 μL) was added, and the plates were resealed and incubated at RT for 1 h. Finally, 4 × (8 μL) donor beads solution was added in a darkened room and incubated for 45 min at room temperature. Plates were read on the Envision (Perkin Elmer) in AlphaScreen mode within 3 h of donor bead addition.
(§2) Supplemental Table S3. integrin AlphaLIS A assay reagents and conditions Human A l phal i sa Inte gri n A ssays: Fi nal Condi ti ons […]
(§3) ( batch de pe nde nt) anti body A l phaLi sa A cce ptor havb1 1. 4 nM 1. 0 nMα - Fi brone cti n human Fi brone cti n n/a A cce ptor be ads/ Pe rki n 10. 0 ug/ m 10. 0 ug/ m […]
(§4) havb3 3. 0 nM 10. […]

human αvβ6 = human αvβ6 (Homo sapiens, UniProt P06756+P18564); assay: AlphaLISA integrin-ligand binding assay; type: biochemical; parameters: hαV 1 992; hβ6 1 709; made in house; host or cells: Expi293
Procedure: as §1, §2, §3, §4

[1] = tested on: bleomycin-induced lung fibrosis; assay: Bleomycin-induced lung fibrosis mouse model; type: in vivo; conditions: BLM mice, Nintedanib 60 mpk po qd
Procedure: Adult male C57BL/6 mice (Taconic, Rensselaer, NY) were housed in a temperature and humidity-controlled facility with a 12 h light: 12-h dark cycle. Animals had ad libitum access to food (Purina Rodent Chow 5053, LabDiet, St. Louis, MO) and water. All procedures utilizing experimental animals were conducted in accordance with the Guide for the Care and Use of Laboratory Animals, and experimental procedures were reviewed and approved by the Institutional Animal Care and Use Committee at MRL, Kenilworth, NJ. For osmotic minipump implantation, TFA salt of MK-0429 was formulated in 50% DMSO/50% H2O at a concentration of 416 mg/mL. MK-0429 or vehicle solution were filled in minipumps (Alzet, # 1007D, flow rate 0.5 μL/h). Minipumps were placed in mice subcutaneously in a pocket on the back between the shoulder blades. A small incision was made and a subcutaneous pocket formed by blunt dissection. A sterile minipump was inserted into the subcutaneous pocket. The incision was closed with staples or non-absorbable suture or absorbable (subcuticular) suture. The minipumps were used for continuous drug delivery for 2 weeks. Mice at 12 ~ 13 weeks of age were randomized to 5 groups: saline, bleomycin instillation with vehicle (osmotic minipump), bleomycin instillation with MK-0429 treatment, bleomycin instillation with vehicle oral treatment, and bleomycin instillation with Nintedanib treatment. All mice were anaesthetized with isoflurane. Bleomycin was dosed by intra-tracheal (i.t) instillation in a volume of 50 µl, at a dose of 1unit /kg body weight. After instillation, mice were kept in a heads-up position for 2–5 min before putting into cages. MK-0429 (200 mg/kg) was administered by Osmotic pump from day 5 to day 14 and Nintedanib (60 mg/kg) was administered, p.o., q.d., for 14 days. Vehicle was dosed orally at 10 am daily from the day 5 to the end of the studies and dosing volume was 10 mL/kg. For plasma PK analysis, an aliquot of 50 μL plasma was spiked into a 96-well plate, and 200 μL of acetonitrile containing internal standard were added for protein precipitation. The mixture was vortexed, centrifuged at 4000 rpm for 20 min. 50 μL of supernatant were mixed with 200 μl H2O and the final solution were injected for LC–MS/MS analysis. The methods for quantitative analysis were developed on UPLC (Waters) chromatographic system equipped with an API4000 QTrap mass spectrometer (Applied Biosystems, Concord, Ontario, Canada). Analyst 1.5 software packages (Applied Biosystems) were used to control the LC–MS/MS system and data acquisition and processing. Upon completion of the study, animals were euthanized and tissues were collected for histological assessment. Lung tissues were perfused with 10% formalin, fixed for 24 h, and then paraffin embedded. Tissue sections were stained with hematoxylin & eosin (H&E) and Masson’s trichrome, subsequently evaluated under light microscope. The severity of histopathologic changes and fibrosis in the lung were graded as described previously by pathologists[51],[52]. Following deparaffinization and rehydration, each lung tissue section was processed to identify αSMA deposition by immunohistochemistry. The primary antibodies used were αSMA antibody from Sigma. The Aperio ScanScope XT Slide Scanner (Aperio Technologies) system was used to capture whole slide digital images with a 20 × objective. Digital images were managed using Aperio Spectrum. The positive stains were identified and quantified using a macro created from a color deconvolution algorithm (Aperio Technologies). Statistical analysis was performed by using One-way ANOVA followed by Tukey’s test.

[2] = treatment from day 5 for 14 days, MK-0429 200 mpk osmotic minipump, vs BLM-vehicle

Sequence of human αvβ6 (P06756 31-992): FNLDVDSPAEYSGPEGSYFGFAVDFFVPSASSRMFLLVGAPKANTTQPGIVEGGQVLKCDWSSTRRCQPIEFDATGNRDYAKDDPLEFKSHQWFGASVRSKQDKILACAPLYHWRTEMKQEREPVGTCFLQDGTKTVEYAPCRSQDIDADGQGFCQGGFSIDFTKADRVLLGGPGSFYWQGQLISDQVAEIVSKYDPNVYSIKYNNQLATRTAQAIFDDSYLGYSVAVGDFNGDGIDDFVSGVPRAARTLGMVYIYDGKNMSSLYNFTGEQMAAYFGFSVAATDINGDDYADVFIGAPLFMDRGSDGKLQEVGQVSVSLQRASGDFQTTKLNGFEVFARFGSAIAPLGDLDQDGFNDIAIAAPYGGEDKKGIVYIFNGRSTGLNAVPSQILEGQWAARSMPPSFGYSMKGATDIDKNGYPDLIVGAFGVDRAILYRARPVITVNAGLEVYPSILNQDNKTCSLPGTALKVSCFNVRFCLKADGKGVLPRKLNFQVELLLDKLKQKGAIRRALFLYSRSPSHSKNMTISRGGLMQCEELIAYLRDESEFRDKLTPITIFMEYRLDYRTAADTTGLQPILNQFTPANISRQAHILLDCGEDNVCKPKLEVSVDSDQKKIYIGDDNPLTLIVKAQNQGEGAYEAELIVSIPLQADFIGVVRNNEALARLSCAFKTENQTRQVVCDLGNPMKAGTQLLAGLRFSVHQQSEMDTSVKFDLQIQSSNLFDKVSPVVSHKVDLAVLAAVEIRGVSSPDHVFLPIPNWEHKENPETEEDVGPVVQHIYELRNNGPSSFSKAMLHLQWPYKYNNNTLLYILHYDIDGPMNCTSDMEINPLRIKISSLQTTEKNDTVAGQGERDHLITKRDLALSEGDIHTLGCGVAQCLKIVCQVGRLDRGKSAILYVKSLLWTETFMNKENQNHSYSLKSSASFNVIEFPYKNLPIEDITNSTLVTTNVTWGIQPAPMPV
Sequence of human αvβ6 (P18564 22-709): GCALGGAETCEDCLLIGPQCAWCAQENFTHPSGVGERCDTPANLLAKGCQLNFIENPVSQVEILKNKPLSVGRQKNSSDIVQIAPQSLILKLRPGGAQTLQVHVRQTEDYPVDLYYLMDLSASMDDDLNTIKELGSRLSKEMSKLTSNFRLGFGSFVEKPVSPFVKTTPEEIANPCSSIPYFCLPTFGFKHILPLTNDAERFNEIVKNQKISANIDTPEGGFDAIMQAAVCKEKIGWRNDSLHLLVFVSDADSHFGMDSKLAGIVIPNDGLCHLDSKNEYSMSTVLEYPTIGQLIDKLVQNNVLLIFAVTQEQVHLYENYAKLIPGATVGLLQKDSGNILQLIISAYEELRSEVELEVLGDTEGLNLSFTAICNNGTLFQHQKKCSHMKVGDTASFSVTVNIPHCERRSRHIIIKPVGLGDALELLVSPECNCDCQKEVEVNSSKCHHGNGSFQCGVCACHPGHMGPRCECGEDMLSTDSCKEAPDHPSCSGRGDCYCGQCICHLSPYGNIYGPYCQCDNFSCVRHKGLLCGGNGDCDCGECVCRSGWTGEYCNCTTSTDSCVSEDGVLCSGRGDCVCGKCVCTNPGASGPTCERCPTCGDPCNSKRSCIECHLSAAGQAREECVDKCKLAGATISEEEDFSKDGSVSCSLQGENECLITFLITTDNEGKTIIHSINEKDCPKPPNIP
Sequence of human αvβ8 (P06756 31-992): as the sequence (P06756 31-992) above
Sequence of human αvβ8 (P26012 43-684): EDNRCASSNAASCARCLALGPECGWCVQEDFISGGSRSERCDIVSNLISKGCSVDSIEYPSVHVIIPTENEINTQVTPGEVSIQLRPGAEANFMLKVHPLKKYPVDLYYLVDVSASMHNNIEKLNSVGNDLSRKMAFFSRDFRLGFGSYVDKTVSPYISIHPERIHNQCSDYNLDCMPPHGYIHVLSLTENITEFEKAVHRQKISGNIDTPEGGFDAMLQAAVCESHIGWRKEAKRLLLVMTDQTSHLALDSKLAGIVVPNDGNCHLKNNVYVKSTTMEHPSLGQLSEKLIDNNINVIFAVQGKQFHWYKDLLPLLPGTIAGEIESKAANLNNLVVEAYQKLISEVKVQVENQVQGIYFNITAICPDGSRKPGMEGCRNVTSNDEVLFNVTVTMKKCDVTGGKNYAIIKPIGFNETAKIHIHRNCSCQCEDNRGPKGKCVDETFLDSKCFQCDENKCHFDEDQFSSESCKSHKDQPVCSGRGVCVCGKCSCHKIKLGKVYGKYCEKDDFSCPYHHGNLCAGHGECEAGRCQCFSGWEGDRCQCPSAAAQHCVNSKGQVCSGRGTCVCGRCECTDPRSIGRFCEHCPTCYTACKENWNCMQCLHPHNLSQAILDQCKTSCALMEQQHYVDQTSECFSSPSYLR

IC50 (human αvβ8; Fig. 3D, assay optimisation, read-out: IC50 human αvβ8 AlphaLISA): 58.3 nM | IC50 (human αvβ8; Fig. 4B, read-out: IC50 Human integrin AlphaLISA assays: hαvβ8): 3.1 nM | IC50 (human αvβ6; Fig. 3D, assay optimisation, read-out: IC50 human αvβ6 AlphaLISA): 3.8 nM | IC50 (human αvβ6; Fig. 4B, read-out: IC50 Human integrin AlphaLISA assays: hαvβ6): 0.5 nM
Structure (SMILES): COc1ccc(C(CC(=O)O)N2CCN(CCCc3ccc4c(n3)NCCC4)C2=O)cn1 (stereo not drawn) [MK-0429]
TIMP-1 content in BALF ([1]; 14 days treatment, MK-0429 200 mpk minipump): did not reach statistical significance | Modified Ashcroft score of mouse lung [1, 2]: significantly decreased | Total inflammation area in mouse lungs [1, 2]: nonstatistical significant decrease | αSMA immunohistochemistry in lung [1, 2]: significantly decreased | Body weight vs bleomycin group ([1]; MK-0429 200 mpk minipump): no significant body weight difference
